AC50 data for 14 molecules are collected here from US20230104936A1, “TRPML MODULATORS” (Casma Therapeutics, Inc., priority 2019, published 2023).

In this assay the test system is TFEB. Put plainly: TFEB nuclear translocation assay, HeLa wt cells. Format: cell-based. To be noted: Homo sapiens, HeLa, 2 h, 2 hrs compound treatment, Table 1 does not say HeLa wt or TRPML1 KO. In a few lines:
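Cells are plated overnight, exposed to compounds for 2 hrs at 37° C, fixed with 4% PFA, blocked, and stained overnight at 4° C with rabbit anti-TFEB. After Alexa 488 secondary and Hoechst, nuclei and a perinuclear ring are segmented to give a nuclear:ring intensity ratio and AC50.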
A word on the AC50: it is the midpoint of the concentration-response curve, whichever way the signal moves. Lower therefore signals activity at low concentration. `COC(F)(F)C(F)(F)c1ccc(S(=O)(=O)Nc2ccccc2N2CCN(C(=O)C(C)(C)C)CC2)cc1` [Compound A-569, N-{2-[4-(2,2-dimethylpropanoyl)piperazin-1-yl]phenyl}-4-(1,1,2,2-tetrafluoro-2-methoxyethyl)benzene-1-sulfonamide]: the AC50 lay in the range of 8.01 to 9.99 µM. The figure for `CC1(C)CC2(CCN(c3ccccc3NS(=O)(=O)Cc3ccccc3)CC2)CO1` [Compound A-570, N-(2-{3,3-dimethyl-2-oxa-8-azaspiro[4.5]decan-8-yl}phenyl)-1-phenylmethanesulfonamide] is no more than 2 µM; for `COCC1(C)CCN(c2ccccc2NS(=O)(=O)Cc2ccc3c(c2)COCC3)CC1` [Compound A-571, 1-(3,4-dihydro-1H-2-benzopyran-7-yl)-N-{2-[4-(methoxymethyl)-4-methylpiperidin-1-yl]phenyl}methanesulfonamide] it is 2.01 to 8 µM. Under `CC(C)(C)C(=O)N1CCN(c2ccccc2NS(=O)(=O)c2ccc(C(C)(C)C(F)(F)F)cc2)CC1` [Compound A-572, N-{2-[4-(2,2-dimethylpropanoyl)piperazin-1-yl]phenyl}-4-(1,1,1-trifluoro-2-methylpropan-2-yl)benzene-1-sulfonamide] stands 2.01 to 8 µM; under `CCCOc1ccc(S(=O)(=O)Nc2ccccc2N2CCN(C(=O)C(C)(C)C)CC2)cc1` [Compound A-573, N-{2-[4-(2,2-dimethylpropanoyl)piperazin-1-yl]phenyl}-4-propoxybenzene-1-sulfonamide], 8.01 to 9.99 µM.

`CC(C)(C)C(=O)N1CCN(c2ccccc2NS(=O)(=O)c2ccc(SC(F)(F)F)cc2)CC1` [Compound A-574, N-{2-[4-(2,2-dimethylpropanoyl)piperazin-1-yl]phenyl}-4-[(trifluoromethyl)sulfanyl]benzene-1-sulfonamide]: the half-maximal activity concentration (AC50) is 2.01 to 8 µM.

On to `CC(C)(C)C(=O)N1CCN(c2ccccc2NS(=O)(=O)c2ccc(S(F)(F)(F)(F)F)cc2)CC1` [Compound A-575, N-{2-[4-(2,2-dimethylpropanoyl)piperazin-1-yl]phenyl}-4-(pentafluoro-λ^6-sulfanyl)benzene-1-sulfonamide], for which the concentration at half-maximal activity (AC50) lay within 8.01 to 9.99 µM. The figure for `CC(C)(C)C(=O)N1CCN(c2ccccc2NS(=O)(=O)c2ccc(OC3CC3)cc2)CC1` [Compound A-576, 4-cyclopropoxy-N-{2-[4-(2,2-dimethylpropanoyl)piperazin-1-yl]phenyl}benzene-1-sulfonamide] is no less than 10 µM. The figure for `COCC1(C)CCN(c2ccccc2NS(=O)(=O)c2ccc(Cl)cc2)CC1` [Compound A-577, 4-chloro-N-{2-[4-(methoxymethyl)-4-methylpiperidin-1-yl]phenyl}benzene-1-sulfonamide] is 2.01 to 8 µM; for `COCC1(C)CCN(c2ccccc2NS(=O)(=O)Cc2ccc(C)cc2)CC1` [Compound A-578, N-{2-[4-(methoxymethyl)-4-methylpiperidin-1-yl]phenyl}-1-(4-methylphenyl)methanesulfonamide] it is 2.01 to 8 µM; for `COCC1(C)CCN(c2ccccc2NS(=O)(=O)Cc2ccccc2F)CC1` [Compound A-579, 1-(2-fluorophenyl)-N-{2-[4-(methoxymethyl)-4-methylpiperidin-1-yl]phenyl}methanesulfonamide] it is 2.01 to 8 µM. The figure for `COCC1(C)CCN(c2ccccc2NS(=O)(=O)Cc2ccc(F)cc2)CC1` [Compound A-580, 1-(4-fluorophenyl)-N-{2-[4-(methoxymethyl)-4-methylpiperidin-1-yl]phenyl}methanesulfonamide] is 8.01 to 9.99 µM. In the case of `COCC1(C)CCN(c2ccccc2NS(=O)(=O)Cc2cccc(C#N)c2)CC1` [Compound A-581, 1-(3-cyanophenyl)-N-{2-[4-(methoxymethyl)-4-methylpiperidin-1-yl]phenyl}methanesulfonamide], the AC50 fell in the range of 2.01 to 8 µM. Under `COCC1(C)CCN(c2ccccc2NS(=O)(=O)Cc2ccc(OC)cc2)CC1` [Compound A-582, N-{2-[4-(methoxymethyl)-4-methylpiperidin-1-yl]phenyl}-1-(4-methoxyphenyl)methanesulfonamide] stands 2.01 to 8 µM.
